Data: PubChem BioAssay AID2060889 (Molecular Pharmacology Branch, DTP, NCI, 2025)
Each block holds one molecule with its values, some of them ahead of it.

Tested on: LG0567-F671-PDC complex spheroids viability
Assay: Anticancer human tumor LG0567-F671-PDC patient-derived lung adenocarcinoma cell line growth inhibition [RAS]
Conditions: for IC50: curve of first compound; for viability, T/C: stronger effect = lower value
Method in brief: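 Multi-cell-type spheroids: tumor cells plus HUVEC endothelial cells and mesenchymal stem cells. RAS-pathway inhibitors were combined with targeted agents, each dosed in half-log steps down from clinical Cmax, or from 10 microM when Cmax was unknown.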
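Also: spheroids exposed to compound for seven days before readout.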
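For IC50 in this document: luminescence signal used as a proxy for viable cells.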

IC50 (second compound 0.00316 µM): < 3.16 nM | IC50 (second compound 0.01 µM): < 3.16 nM | IC50 (second compound 0.0316 µM): < 3.16 nM | IC50 (second compound 0.1 µM): < 3.16 nM | IC50 (second compound 0.316 µM): < 3.16 nM | IC50 (second compound 1 µM): < 3.16 nM
Structure (SMILES): O=C(c1ccc(F)c(F)c1Nc1ccc(I)cc1F)N1CC(O)([C@@H]2CCCCN2)C1 + C=CC(=O)N1CCN(c2nc(OCC3CCCN3C)nc3c(F)c(-c4nc(N)cc(C)c4C(F)(F)F)c(Cl)cc23)C(C)C1
viability, T/C (second compound 0.00316 µM, first compound 0.00316 µM): 15.6% | viability, T/C (second compound 0.00316 µM, first compound 0.01 µM): 16.9% | viability, T/C (second compound 0.00316 µM, first compound 0.0316 µM): 8.91% | viability, T/C (second compound 0.00316 µM, first compound 0.1 µM): 8.75% | viability, T/C (second compound 0.00316 µM, first compound 0.316 µM): 3.51% | viability, T/C (second compound 0.00316 µM, first compound 1 µM): 1.58% | viability, T/C (second compound 0.01 µM, first compound 0.00316 µM): 12.4% | viability, T/C (second compound 0.01 µM, first compound 0.01 µM): 11.6% | viability, T/C (second compound 0.01 µM, first compound 0.0316 µM): 10.7% | viability, T/C (second compound 0.01 µM, first compound 0.1 µM): 5.03% | viability, T/C (second compound 0.01 µM, first compound 0.316 µM): 3.8% | viability, T/C (second compound 0.01 µM, first compound 1 µM): 1.56% | viability, T/C (second compound 0.0316 µM, first compound 0.00316 µM): 11.8% | viability, T/C (second compound 0.0316 µM, first compound 0.01 µM): 8.27% | viability, T/C (second compound 0.0316 µM, first compound 0.0316 µM): 7.53% | viability, T/C (second compound 0.0316 µM, first compound 0.1 µM): 5.24% | viability, T/C (second compound 0.0316 µM, first compound 0.316 µM): 3.75% | viability, T/C (second compound 0.0316 µM, first compound 1 µM): 1.45% | viability, T/C (second compound 0.1 µM, first compound 0.00316 µM): 11.5% | viability, T/C (second compound 0.1 µM, first compound 0.01 µM): 9.3% | viability, T/C (second compound 0.1 µM, first compound 0.0316 µM): 6.61% | viability, T/C (second compound 0.1 µM, first compound 0.1 µM): 5.01% | viability, T/C (second compound 0.1 µM, first compound 0.316 µM): 2.96% | viability, T/C (second compound 0.1 µM, first compound 1 µM): 1.42% | viability, T/C (second compound 0.316 µM, first compound 0.00316 µM): 12.2% | viability, T/C (second compound 0.316 µM, first compound 0.01 µM): 9.6% | viability, T/C (second compound 0.316 µM, first compound 0.0316 µM): 6.94% | viability, T/C (second compound 0.316 µM, first compound 0.1 µM): 5.35% | viability, T/C (second compound 0.316 µM, first compound 0.316 µM): 3.61% | viability, T/C (second compound 0.316 µM, first compound 1 µM): 1.71% | viability, T/C (second compound 1 µM, first compound 0.00316 µM): 12.3% | viability, T/C (second compound 1 µM, first compound 0.01 µM): 10.1% | viability, T/C (second compound 1 µM, first compound 0.0316 µM): 7.82% | viability, T/C (second compound 1 µM, first compound 0.1 µM): 5.94% | viability, T/C (second compound 1 µM, first compound 0.316 µM): 4.07% | viability, T/C (second compound 1 µM, first compound 1 µM): 1.77%

Structure (SMILES): CC1(O)CCCC1n1c(=O)c(C(F)F)cc2cnc(NC3CCN(S(C)(=O)=O)CC3)nc21 (stereo not drawn)
viability, T/C (compound 0.0316 µM): 88.7% [middle of 4 runs] | viability, T/C (compound 0.1 µM): 86.2% [middle of 4 runs] | viability, T/C (compound 0.316 µM): 81.6% [middle of 4 runs] | viability, T/C (compound 1 µM): 91.5% [middle of 4 runs] | viability, T/C (compound 3.16 µM): 93.8% [middle of 4 runs] | viability, T/C (compound 10 µM): 47% [middle of 4 runs]
